The conditions of series [1]: from Ac-Pen-Asn-Thr-7MeTrp-Lys(Ac)-Pen-AEF-2Nal-THP-Lys(Ac)-Asn-3Pya-Sar-PEG2-PEG2-eLys(C16OH)-OH; disulfide bond; 20-membered ring; I2/AcOH; ACN/H2O; […].
For series [2], the target named is T1, peripheral blood mononuclear cells (PBMCs) (Homo sapiens, UniProt Q5VWK5).
T1 sequence (Q5VWK5 24-629): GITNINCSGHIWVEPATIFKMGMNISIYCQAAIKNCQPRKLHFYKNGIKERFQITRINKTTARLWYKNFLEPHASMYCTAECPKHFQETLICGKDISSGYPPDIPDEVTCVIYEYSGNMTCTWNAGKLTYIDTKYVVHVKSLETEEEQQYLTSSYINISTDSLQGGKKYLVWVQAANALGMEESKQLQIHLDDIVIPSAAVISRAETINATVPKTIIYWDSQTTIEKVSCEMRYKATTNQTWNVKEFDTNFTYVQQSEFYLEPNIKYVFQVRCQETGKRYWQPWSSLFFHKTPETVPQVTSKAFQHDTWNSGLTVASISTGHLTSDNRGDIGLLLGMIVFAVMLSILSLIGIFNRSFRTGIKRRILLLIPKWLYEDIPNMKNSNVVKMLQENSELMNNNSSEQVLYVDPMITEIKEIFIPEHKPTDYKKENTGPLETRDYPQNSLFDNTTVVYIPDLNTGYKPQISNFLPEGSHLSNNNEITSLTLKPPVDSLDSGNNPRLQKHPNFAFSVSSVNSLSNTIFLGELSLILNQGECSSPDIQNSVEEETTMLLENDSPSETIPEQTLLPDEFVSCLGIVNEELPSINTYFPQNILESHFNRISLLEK
Kind of series: PBMC pSTAT3 assay. The class given is cell-based. The following applies: PBMCs from healthy donors, anti-CD3/IL-1β cultured; peptide 30 min, then IL-23 5 ng/mL for 30 min; phosphorylated STAT3 (Meso Scale Discovery). The source says:
IL-23 binding to IL-23 receptors results in the activation of the Signal Transducer and Activator of Transcription 3 (STAT3) by phosphorylation and downstream signaling events. Accordingly. the ability of the inhibitors described herein to block IL-23 action can be assessed by monitoring the status of STAT3 activation in response to IL-23. This may be accomplished in reporter cell assays or in intact cells such as peripheral blood mononuclear cells (PBMCs).

The target of the next series is T2, IL-23R (Homo sapiens, UniProt Q5VWK5).
T2 construct: HEK293 cells containing IL-23R, IL-12RP31 and a firefly luciferase reporter gene driven by a STAT-inducible promoter (Promega); host or cells: HEK293
T2 sequence (Q5VWK5 24-629): T1 sequence (Q5VWK5 24-629)
In words: IL23R Reporter Assay. The class given is cell-based. In a few lines: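 Luminescence from BioGlo, read after cells were moved to 20 °C, followed a 5 h incubation at 37 °C, 5% CO2 with DMSO-diluted test compounds.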
In general terms: A reporter such as luciferase makes a cellular process visible.

For series [3], the target named is IL-23R-expressing DB cells (Homo sapiens, UniProt Q5VWK5). Kind of series: DB Cells IL23R pSTAT3 Cell Assay. The class given is cell-based. The following applies: pSTAT3 (HTRF) in IL-23R-expressing DB cells, 0.5 nM IL-23, 30 minutes; Table 6 'IL-23 Cell Data'. The method, then: IL-23 is believed to play a central role in supporting and maintaining Th17 differentiation in vivo. This process is thought to be mediated primarily through the Signal Transducer and Activator of Transcription 3 (STAT3), with phosphorylation of STAT3 (to yield pSTAT3) leading to upregulation of RORC and pro-inflammatory IL-17. […] DB cells (ATCC #CRL-2289), cultured in RPMI-1640 medium (Thermo Scientific #11875093) supplemented with 10% FBS, were added at 5 X 10E5 cells/well and incubated for 30 minutes at 37° C. in a 5% CO2 humidified incubator. Changes in phospho-STAT3 levels in the cell lysates were detected using the Cisbio HTRF pSTAT3 (Tyr705) Cellular Assay Kit (Cisbio #62AT3PEH), according to manufacturer's Two Plate Assay protocol. Where not shown or it is marked as “0”, data was not yet determined.

Broadly, the IC50 is the concentration needed to halve the response being measured. Lower therefore signals greater potency in that assay.

Structures are written as SMILES. Starred links: 1 amine or outer side, 2 acyl side, 3 side chain; linkers in the order of their positions; H or OH if unused. Positions of bridges follow the written chain, without caps; N, C: chain ends. Non-standard residues stand in square brackets, D forms with d. Residues, ends and D or L forms follow the SMILES beside them. Groups on a side chain read outwards from the residue. *: point of attachment. X1 = O=C(O)CCCCCCCCCCCCCCC(=O)N[C@@H](CCCCN*)C(=O)O; Trp(7-Me) = Cc1cccc2c(C[C@H](N)C(=O)O)c[nH]c12; C18 diacid = O=C(O)CCCCCCCCCCCCCCCCC(=O)*; γGlu = O=C(O)[C@H](CCC(=O)[*:2])N[*:1]; 2Nal = N[C@@H](Cc1ccc2ccccc2c1)C(=O)O; AEF = NCCOc1ccc(C[C@H](N)C(=O)O)cc1; 3Pal = N[C@@H](Cc1cccnc1)C(=O)O; Pen = CC(C)(S)[C@H](N)C(=O)O; Thp = NC1(C(=O)O)CCOCC1; AEEA = NCCOCCOCC(=O)O; Sar = CNCC(=O)O

`CC(=O)NCCCC[C@@H]1NC(=O)[C@H](Cc2c[nH]c3c(C)cccc23)NC(=O)[C@H]([C@@H](C)O)NC(=O)[C@H](CC(N)=O)NC(=O)[C@@H](NC(C)=O)C(C)(C)SSC(C)(C)[C@@H](C(=O)N[C@@H](Cc2ccc(OCCN)cc2)C(=O)N[C@@H](Cc2ccc3ccccc3c2)C(=O)NC2(C(=O)N[C@@H](CCCCNC(C)=O)C(=O)N[C@@H](CC(N)=O)C(=O)N[C@@H](Cc3cccnc3)C(=O)N(C)CC(=O)NCCOCCOCC(=O)NCCOCCOCC(=O)NCCCC[C@H](NC(=O)CCCCCCCCCCCCCCC(=O)O)C(=O)O)CCOCC2)NC1=O` [Example 8, MeCO-Pen*-N-T-7MeW-K(Ac)-Pen*-AEF-2Nal-THP—K(Ac)-N— 3Pva-Sar-PEG2-PEG2-eK(C160H)-COOH (*Pen-Pen form disulfide bond)] (Ac-[Pen]NT[Trp(7-Me)]K(Ac)[Pen][AEF][2Nal][Thp]K(Ac)N[3Pal][Sar][AEEA][AEEA]-X1; disulfide 1-6) registered a ring closure, yield after HPLC in series [1] of 7%. Further, the IC50 in series [2] worked out at 0.21 nM; at IL-23R, 0.089 nM.
Take `COc1ccc(C[C@H](NC(=O)[C@H]2NC(=O)[C@H](CCCCNC(=O)CC[C@H](NC(=O)CCCCCCCCCCCCCCCCC(=O)O)C(=O)O)NC(=O)[C@H](Cc3c[nH]c4c(C)cccc34)NC(=O)[C@H]([C@@H](C)O)NC(=O)[C@H](CC(C)C)NC(=O)[C@@H](NC(C)=O)C(C)(C)SSC2(C)C)C(=O)N[C@@H](Cc2ccc3ccccc3c2)C(=O)NC2(C(=O)N[C@@H](CCCCNC(C)=O)C(=O)N[C@@H](CC(C)C)C(=O)N[C@@H](Cc3cccnc3)C(=O)N(C)CC(N)=O)CCOCC2)cc1` [Example 271, Ac-[Pen]-L-T-[Trp(7-Me)]-[Lys(IsoGlu_C18_Diacid)]-[Pen]-[Phe(4-OMe)]-[2Nal]-[THP]-[Lys(Ac)]-L-[3Pal]-[Sarc]-NH2] (Ac-[Pen]LT[Trp(7-Me)]K([γGlu-C18 diacid])[Pen]Y(Me)[2Nal][Thp]K(Ac)L[3Pal][Sar]-NH2; disulfide 1-6): the concentration for half-maximal inhibition (IC50) in series [3] is above 10 nM.

(Values after US12478617B2, “Lipidated peptide inhibitors of interleukin-23 receptor” (JANSSEN BIOTECH, INC., priority 2021, dated 2025).)
